Reference: ChEMBL document CHEMBL3399969, “Multifunctional scutellarin-rivastigmine hybrids with cholinergic, antioxidant, biometal chelating and neuroprotective properties for the treatment of Alzheimer's disease” (Bioorg Med Chem, 2015)
Active and inactive are the calls of the source. The calls are words filed in the database; no cut-off is given here.

Key:
[1] = Antioxidant activity assessed as trolox equivalent of […]-induced radical scavenging activity by ORAC-FL method; assay type: physicochemical
[2] = Inhibition of rat serum BuChE using butyrylthiocholine iodide as substrate after 15 mins by Ellman method; assay type: cell-free
[3] = target: T1, Acetylcholinesterase (Rattus norvegicus, UniProt P37136); test: Inhibition of rat cortex AChE using acetylthiocholine iodide as substrate after 15 mins by Ellman method
T1 sequence (P37136 whole entry): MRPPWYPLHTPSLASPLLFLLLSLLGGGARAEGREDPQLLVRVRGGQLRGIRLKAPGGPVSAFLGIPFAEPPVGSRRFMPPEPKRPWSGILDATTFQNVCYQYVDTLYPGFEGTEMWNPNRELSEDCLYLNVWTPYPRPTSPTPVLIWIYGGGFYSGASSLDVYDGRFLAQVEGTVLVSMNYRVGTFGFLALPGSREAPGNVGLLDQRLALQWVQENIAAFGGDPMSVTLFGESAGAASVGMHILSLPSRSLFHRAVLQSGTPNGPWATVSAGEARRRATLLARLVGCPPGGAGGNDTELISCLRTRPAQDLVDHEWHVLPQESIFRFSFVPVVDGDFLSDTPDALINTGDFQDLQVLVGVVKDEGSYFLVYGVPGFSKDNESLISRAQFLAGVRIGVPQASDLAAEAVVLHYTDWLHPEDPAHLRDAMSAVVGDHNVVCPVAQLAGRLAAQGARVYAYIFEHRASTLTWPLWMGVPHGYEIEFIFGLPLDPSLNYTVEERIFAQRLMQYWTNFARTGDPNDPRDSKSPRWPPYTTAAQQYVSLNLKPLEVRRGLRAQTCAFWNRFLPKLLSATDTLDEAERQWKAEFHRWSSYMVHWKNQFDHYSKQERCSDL

[4] = system: PC-12; test: Neuroprotective effect against H2O2-induced rat PC12 cell injury assessed as cell viability at 10 uM incubated for 2 hrs prior to H2O2 challenge measured after 24 hrs by MTT assay (reference value: 57.6%); assay type: functional; conditions: read-out: Activity
[5] = organism: Rattus norvegicus; test: Selectivity index, ratio of IC50 for rat serum BuChE to IC50 for rat cortex AChE; assay type: cell-free
[6] = organism: Mus musculus; test: Cognitive enhancing effect in Kunming mouse assessed as inhibition of scopolamine-induced decreased spontaneous alternation behavior after 30 mins by T-maze test; assay type: functional, organism-based
[7] = system: Mus musculus; test: Cognitive enhancing effect in Kunming mouse assessed as inhibition of scopolamine-induced decreased spontaneous alternation behavior at 8 mg/kg after 30 mins by T-maze test; assay type: functional; set-up: scale not given: the % may be the effect or the level left
[8] = Metal chelating activity of the compound assessed as Al3+ complex formation after 30 mins by UV-Vis spectrometry; assay type: physicochemical; conditions: 0.5 h
[9] = system: Mus musculus; test: Toxicity in Kunming mouse assessed as change in behavior at 2 to 8 mg/kg; assay type: organism-based; set-up: dose 2-8 mg/kg; conditions: in vivo
[10] = system: Mus musculus; test: Toxicity in Kunming mouse assessed as change in behavior at 6 mg/kg; assay type: organism-based; set-up: dose 6 mg/kg; conditions: in vivo
[11] = organism: Mus musculus; test: Neuroprotective effect in scopolamine-treated Kunming mouse hippocampus assessed as increase in vitality of ChAT by Ellman method; assay type: functional, organism-based
[12] = system: Mus musculus; test: Neuroprotective effect in scopolamine-treated Kunming mouse hippocampus assessed as increase in vitality of ChAT at 8 mg/kg by Ellman method; assay type: functional
[13] = system: Mus musculus; test: Neuroprotective effect in Kunming mouse hippocampus assessed as reduction of scopolamine-induced vitality of AChE at 8 mg/kg by Ellman method; assay type: functional
[14] = organism: Mus musculus; test: Neuroprotective effect in Kunming mouse hippocampus assessed as reduction of scopolamine-induced vitality of AChE by Ellman method; assay type: functional, organism-based
[15] = Metal chelating activity of the compound assessed as Fe2+ complex formation after 30 mins by UV-Vis spectrometry; assay type: physicochemical; conditions: 0.5 h
[16] = Metal chelating activity of the compound assessed as Zn2+ complex formation after 30 mins by UV-Vis spectrometry; assay type: physicochemical; conditions: 0.5 h
[17] = target: Acetylcholinesterase (Electrophorus electricus) (UniProt O42275); test: Mixed-type inhibition of electric eel AChE using acetylthiocholine iodide as substrate at 0.5 to 1.5 uM after 15 mins by Lineweaver-Burk reciprocal plot analysis
[18] = Metal chelating activity of the compound assessed as Cu2+ complex formation after 30 mins by UV-Vis spectrometry; assay type: physicochemical; conditions: 0.5 h

Acetylcholinesterase (Electrophorus electricus), sequence (O42275 24-633 limits assumed): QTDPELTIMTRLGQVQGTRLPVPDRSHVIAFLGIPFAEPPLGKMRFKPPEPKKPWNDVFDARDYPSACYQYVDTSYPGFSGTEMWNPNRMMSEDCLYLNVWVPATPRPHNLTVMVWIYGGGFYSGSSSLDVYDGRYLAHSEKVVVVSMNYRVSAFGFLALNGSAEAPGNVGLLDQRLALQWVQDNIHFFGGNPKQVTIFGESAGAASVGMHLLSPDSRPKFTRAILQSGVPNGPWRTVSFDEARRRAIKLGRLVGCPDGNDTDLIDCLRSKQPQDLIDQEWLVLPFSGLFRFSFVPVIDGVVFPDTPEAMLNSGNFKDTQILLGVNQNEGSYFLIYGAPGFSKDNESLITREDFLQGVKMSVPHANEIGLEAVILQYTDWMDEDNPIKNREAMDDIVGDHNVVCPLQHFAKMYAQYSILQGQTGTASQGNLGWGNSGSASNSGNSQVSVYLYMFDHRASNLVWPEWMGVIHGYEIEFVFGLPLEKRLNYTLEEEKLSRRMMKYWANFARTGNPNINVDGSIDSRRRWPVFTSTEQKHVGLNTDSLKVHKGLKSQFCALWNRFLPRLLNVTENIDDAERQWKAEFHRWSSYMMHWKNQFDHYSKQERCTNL

Row | Compound | Activity [1] | IC50 [2] [µM] | IC50 [3] [µM] | viability at 10 µM [4] [%] | Ratio IC50 [5] | further results
1 | COc1cc2oc(-c3ccc(OC(=O)N4CCOCC4)cc3)cc(=O)c2c(O)c1OC | 0.9 | > 100 | > 100 | 66.5 | – | –
2 | CCN(CC)C(=O)Oc1cccc(-c2cc(=O)c3c(O)c(OC)c(OC)cc3o2)c1 | 1.3 | 34.5 | 10.3 | – | 3.3 | –
3 | COc1cc2oc(-c3cccc(O)c3)cc(=O)c2c(O)c1OC | 3.7 | > 100 | > 100 | – | – | –
4 | CCN(CC)C(=O)Oc1cccc(-c2cc(=O)c3c(OC)c(OC)c(OC)cc3o2)c1 | 0.31 | 30.1 | 6.11 | 70.8 | 4.9 | –
5 | COc1cc2oc(-c3ccc(OC(=O)N4CCOCC4)cc3)cc(=O)c2c(OC)c1OC | 0.27 | > 100 | 68.3 | – | > 1.5 | –
6 | COc1cc2oc(-c3cccc(OC(=O)N4CCN(Cc5ccccc5)CC4)c3)cc(=O)c2c(O)c1OC | 1.3 | 15.7 | 51.7 | 80.3 | 0.3 | –
7 | COc1cc2oc(-c3cccc(OC(=O)N(C)C)c3)cc(=O)c2c(O)c1OC | 1.2 | 23.6 | 25.7 | – | 0.9 | –
8 | COc1cc2oc(-c3cccc(OC(=O)N4CCOCC4)c3)cc(=O)c2c(O)c1OC | 1.2 | > 100 | > 100 | 66.1 | – | –
9 | COc1cc2oc(-c3cccc(OC(=O)N4CCCCC4)c3)cc(=O)c2c(O)c1OC | 1.1 | > 100 | > 100 | – | – | –
10 | COc1cc2oc(-c3ccc(OC(=O)N4CCN(C)CC4)cc3)cc(=O)c2c(OC)c1OC | 0.29 | 63.8 | 11.4 | 82.4 | 5.6 | –
11 | CCN(C)C(=O)Oc1ccc(-c2cc(=O)c3c(O)c(OC)c(OC)cc3o2)cc1 | 1.1 | 38.1 | 2.1 | 78.3 | 18.1 | –
12 | COc1cc2oc(-c3cccc(OC(=O)N4CCN(Cc5ccccc5)CC4)c3)cc(=O)c2c(OC)c1OC | 0.34 | 7.1 | 87.1 | – | 0.1 | –
13 | COc1cc2oc(-c3cccc(OC(=O)N(C)C)c3)cc(=O)c2c(OC)c1OC | 0.28 | 28.3 | 37.3 | 69.3 | 0.8 | –
14 | COc1cc2oc(-c3cccc(OC(=O)N4CCCCC4)c3)cc(=O)c2c(OC)c1OC | 0.31 | 26.8 | 45.7 | 72.5 | 0.6 | –
15 | CCN(CC)C(=O)Oc1ccc(-c2cc(=O)c3c(O)c(OC)c(OC)cc3o2)cc1 | 1.3 | 22.6 | 0.57 | 78.5 | 39.7 | Activity [6]: Dose-dependent effect; Activity [7]: 68.7%; Activity [8]: Not Active; Activity [9]: Non-toxic; Activity [10]: Non-toxic; Activity [11]: Dose-dependent effect; Activity [12]: 45.2 U/mg; Activity [13]: 0.11 U/mg; Activity [14]: Dose-dependent effect; Activity [15]: Not Active; Activity [16]: Not Active; inhibition [17]: Active; Activity [18]: Not Active
16 | COc1cc2oc(-c3cccc(OC(=O)N4CCN(C)CC4)c3)cc(=O)c2c(O)c1OC | 1.2 | 68.2 | 23.3 | – | 2.9 | –
17 | COc1cc2oc(-c3cccc(O)c3)cc(=O)c2c(OC)c1OC | 1.8 | > 100 | > 100 | – | – | –
18 | COc1cc2oc(-c3ccc(OC(=O)N(C)C)cc3)cc(=O)c2c(O)c1OC | 1.2 | 61.5 | 17.3 | 76.7 | 3.6 | –
